Laboratory results from patent US9988400B2 (Genentech, Inc., priority 2013, dated 2018).
Blank lines part the entries; values can stand above or below the molecule they belong to.

Target: T1, HEK cells stably transfected with tetracycline inducible hNR1 and hNR2A (Homo sapiens, UniProt Q05586+Q12879)
T1 construct: expressed in transfected cells; host or cells: HEK cells, stably transfected, tetracycline/doxycycline inducible
Assay: Assay 1: Cell-Based Assay, cytosolic calcium response to positive allosteric modulators (with 30 μM glycine and 300 nM L-glutamate, EC30)
Conditions: Table 2; for Max %: responses scaled relative to 100 μM L-glutamate maximal response (100%) and 0 μM L-glutamate (0%); for EC50: cytosolic calcium response, with 30 μM glycine and 300 nM L-glutamate (EC30), — = no plateau was reached
Outline: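 Cells induced 24 h with 7.5 μg mL^−1 doxycycline plus 500 μM (+)-ketamine, loaded 60 min at 37 °C with calcium dye in Mg-free HBSS (1.8 mM Ca, probenecid, 10 μM (+)-ketamine, pH 7.15). Peak RFU over 5 min after compound addition, scaled to 100 μM L-glutamate (100%) and 0 μM (0%); four-parameter Hill fit for EC50, max % if no plateau.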

T1 sequence (Q12879 23-1464, other chains not shown): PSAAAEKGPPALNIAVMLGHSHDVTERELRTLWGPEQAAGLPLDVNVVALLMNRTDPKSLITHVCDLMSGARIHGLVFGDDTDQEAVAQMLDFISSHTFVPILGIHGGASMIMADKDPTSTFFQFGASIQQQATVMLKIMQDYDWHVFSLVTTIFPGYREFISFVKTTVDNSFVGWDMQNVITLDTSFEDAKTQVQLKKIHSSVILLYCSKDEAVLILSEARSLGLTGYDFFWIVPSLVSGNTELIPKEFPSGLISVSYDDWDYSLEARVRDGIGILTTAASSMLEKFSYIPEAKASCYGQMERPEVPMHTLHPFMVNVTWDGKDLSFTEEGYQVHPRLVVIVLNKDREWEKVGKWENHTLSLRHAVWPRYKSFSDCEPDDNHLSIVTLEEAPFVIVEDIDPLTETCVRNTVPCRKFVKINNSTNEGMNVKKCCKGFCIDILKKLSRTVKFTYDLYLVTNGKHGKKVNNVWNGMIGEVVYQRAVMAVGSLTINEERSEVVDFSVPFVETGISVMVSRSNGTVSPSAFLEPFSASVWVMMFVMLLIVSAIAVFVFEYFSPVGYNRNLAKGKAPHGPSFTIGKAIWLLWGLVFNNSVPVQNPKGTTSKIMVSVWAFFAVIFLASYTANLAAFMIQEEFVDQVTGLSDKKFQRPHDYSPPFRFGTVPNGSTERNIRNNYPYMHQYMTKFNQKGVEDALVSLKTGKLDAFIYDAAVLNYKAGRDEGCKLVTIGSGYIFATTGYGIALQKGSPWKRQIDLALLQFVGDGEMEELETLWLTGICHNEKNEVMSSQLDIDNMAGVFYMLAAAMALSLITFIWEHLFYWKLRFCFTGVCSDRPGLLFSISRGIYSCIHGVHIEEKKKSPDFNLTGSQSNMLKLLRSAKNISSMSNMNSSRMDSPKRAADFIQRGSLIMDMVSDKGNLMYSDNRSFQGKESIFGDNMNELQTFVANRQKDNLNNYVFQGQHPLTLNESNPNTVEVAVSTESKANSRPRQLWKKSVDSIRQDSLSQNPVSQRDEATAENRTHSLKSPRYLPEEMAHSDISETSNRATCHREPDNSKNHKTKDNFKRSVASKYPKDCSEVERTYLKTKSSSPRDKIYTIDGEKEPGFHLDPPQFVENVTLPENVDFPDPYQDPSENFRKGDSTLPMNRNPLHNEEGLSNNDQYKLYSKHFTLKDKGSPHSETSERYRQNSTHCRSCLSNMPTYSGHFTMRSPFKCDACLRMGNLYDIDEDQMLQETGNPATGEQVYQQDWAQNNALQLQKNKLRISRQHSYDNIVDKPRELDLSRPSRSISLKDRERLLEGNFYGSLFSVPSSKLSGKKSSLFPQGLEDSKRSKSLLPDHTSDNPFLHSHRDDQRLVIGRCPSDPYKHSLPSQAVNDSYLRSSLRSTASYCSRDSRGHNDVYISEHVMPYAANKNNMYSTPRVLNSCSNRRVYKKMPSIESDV

SMILES: CCN(Cc1cc(=O)n2c3c(sc2n1)CCC31CCCC1)c1ccc(F)cc1 [Example 8.6, 6-[(N-ethyl-4-fluoro-anilino)methyl]spiro[2,3-dihydrocyclopenta[3,4]thiazolo[1,4-a]pyrimidine-1,1′-cyclopentane]-8-one]
Max %: 60.5%

SMILES: CCN(Cc1cc(=O)n2c3c(sc2n1)CCC3=O)c1ccc(F)cc1 [Example 8.7, 6-[(N-ethyl-4-fluoro-anilino)methyl]-2,3-dihydrocyclopenta[3,4]thiazolo[1,4-a]pyrimidine-1,8-dione]
Max %: 81.4%

SMILES: CCN(Cc1cc(=O)n2c3c(sc2n1)CCC3(C)C)c1ccc(F)cc1 [Example 8.8, 6-[(N-ethyl-4-fluoro-anilino)methyl]-1,1-dimethyl-2,3-dihydrocyclopenta[3,4]thiazolo[1,4-a]pyrimidin-8-one]
EC50: 8700 nM
Max %: 108%

SMILES: CCN(Cc1cc(=O)n2c3c(sc2n1)CCOC3)c1ccc(F)cc1 [Example 8.9, 2-[(N-ethyl-4-fluoro-anilino)methyl]-8,9-dihydro-6H-pyrano[3,4]thiazolo[1,4-a]pyrimidin-4-one]
EC50: 11100 nM
Max %: 124%

SMILES: CCN(Cc1cc(=O)n2c3c(sc2n1)CCN(C)C3)c1ccc(F)cc1 [Example 8.10, 2-[(N-ethyl-4-fluoro-anilino)methyl]-7-methyl-8,9-dihydro-6H-pyrido[3,4]thiazolo[1,4-a]pyrimidin-4-one]
EC50: 12500 nM
Max %: 127%

SMILES: CCN(Cc1cc(=O)n2c3c(sc2n1)CCC3C(N)=O)c1ccc(F)cc1 (centres unmarked) [Example 8.11, 6-[(N-ethyl-4-fluoro-anilino)methyl]-8-oxo-2,3-dihydro-1H-cyclopenta[3,4]thiazolo[1,4-a]pyrimidine-1-carboxamide]
EC50: 2700 nM
Max %: 154%

SMILES: CCN(Cc1cc(=O)n2c3c(sc2n1)CCC3C#N)c1ccc(F)cc1 (centres unmarked) [Example 8.12, 6-[(N-ethyl-4-fluoro-anilino)methyl]-8-oxo-2,3-dihydro-1H-cyclopenta[3,4]thiazolo[1,4-a]pyrimidine-1-carbonitrile]
EC50: 385 nM
Max %: 161%

SMILES: CCN(Cc1cc(=O)n2c3c(sc2n1)CCC3CC#N)c1ccc(F)cc1 (centres unmarked) [Example 8.13, 2-[6-[(N-ethyl-4-fluoro-anilino)methyl]-8-oxo-2,3-dihydro-1H-cyclopenta[3,4]thiazolo[1,4-a]pyrimidin-1-yl]acetonitrile]
EC50: 2200 nM
Max %: 162%

SMILES: CCN(Cc1cc(=O)n2c3c(sc2n1)CCC3CCO)c1ccc(F)cc1 (centres unmarked) [Example 8.14, 6-[(N-ethyl-4-fluoro-anilino)methyl]-1-(2-hydroxyethyl)-2,3-dihydro-1H-cyclopenta[3,4]thiazolo[1,4-a]pyrimidin-8-one]
EC50: 1100 nM
Max %: 154%

SMILES: CCN(Cc1cc(=O)n2c3c(sc2n1)CCC3COC)c1ccc(F)cc1 (centres unmarked) [Example 8.15, 2-((ethyl(4-fluorophenyl)amino)methyl)-6-(methoxymethyl)-7,8-dihydrocyclopenta[4,5]thiazolo[3,2-a]pyrimidin-4(6H)-one]
EC50: 2300 nM
Max %: 138%

SMILES: CCN(Cc1cc(=O)n2c3c(sc2n1)CCC3CC(N)=O)c1ccc(F)cc1 (centres unmarked) [Example 8.16, 2-[6-[(N-ethyl-4-fluoro-anilino)methyl]-8-oxo-2,3-dihydro-1H-cyclopenta[3,4]thiazolo[1,4-a]pyrimidin-1-yl]acetamide]
EC50: 13000 nM
Max %: 137%

Next, values leading:

Max %: 48.1%
SMILES: CCN(Cc1cc(=O)n2c(C3CCCCC3)c(C)sc2n1)c1ccc(F)cc1 [Example 9.1, 3-cyclohexyl-7-[[ethyl(4-fluorophenyl)amino]methyl]-2-methyl-5H-[1,3]thiazolo[3,2-a]pyrimidin-5-one]

EC50: 2900 nM
Max %: 117%
SMILES: CCN(Cc1cc(=O)n2c(C(C)C)c(C)sc2n1)c1ccc(F)cc1 [Example 9.2, 7-[(N-ethyl-4-fluoro-anilino)methyl]-3-isopropyl-2-methyl-thiazolo[3,2-a]pyrimidin-5-one]

EC50: 7000 nM
Max %: 108%
SMILES: CCN(Cc1cc(=O)n2c(C3CCCC3)c(C)sc2n1)c1ccc(F)cc1 [Example 9.3, 3-cyclopentyl-7-[(N-ethyl-4-fluoro-anilino)methyl]-2-methyl-thiazolo[3,2-a]pyrimidin-5-one]

EC50: 9200 nM
Max %: 114%
SMILES: CCN(Cc1cc(=O)n2c(C3CCOCC3)c(C)sc2n1)c1ccc(F)cc1 [Example 9.4, 7-[(N-ethyl-4-fluoro-anilino)methyl]-2-methyl-3-tetrahydropyran-4-yl-thiazolo[3,2-a]pyrimidin-5-one]

EC50: 4400 nM
Max %: 130%
SMILES: CCN(Cc1cc(=O)n2c(C3CCC3)c(C)sc2n1)c1ccc(F)cc1 [Example 10.1, 3-cyclobutyl-7-[(N-ethyl-4-fluoro-anilino)methyl]-2-methyl-thiazolo[3,2-a]pyrimidin-5-one]

EC50: 5300 nM
Max %: 110%
SMILES: CCN(Cc1cc(=O)n2c(C(C)(C)C)c(C)sc2n1)c1ccc(F)cc1 [Example 10.2, 3-tert-butyl-7-[(N-ethyl-4-fluoro-anilino)methyl]-2-methyl-thiazolo[3,2-a]pyrimidin-5-one]

EC50: 535 nM
Max %: 177%
SMILES: CCN(Cc1cc(=O)n2c(C(C)=O)c(C)sc2n1)c1ccc(F)cc1 [Example 10.3, 3-acetyl-7-[[ethyl(4-fluorophenyl)amino]methyl]-2-methyl-5H-[1,3]thiazolo[3,2-a]pyrimidin-5-one]

EC50: 593 nM
Max %: 186%
SMILES: CCN(Cc1cc(=O)n2c(C(=O)NC)c(C)sc2n1)c1ccc(F)cc1 [Example 10.4, 7-[(N-ethyl-4-fluoro-anilino)methyl]-N,2-dimethyl-5-oxo-thiazolo[3,2-a]pyrimidine-3-carboxamide]

EC50: 495 nM
Max %: 158%
SMILES: CCN(Cc1cc(=O)n2c(C(C)(C)O)c(C)sc2n1)c1ccc(F)cc1 [Example 10.5, 7-[(N-ethyl-4-fluoro-anilino)methyl]-3-(1-hydroxy-1-methyl-ethyl)-2-methyl-thiazolo[3,2-a]pyrimidin-5-one]

EC50: 548 nM
Max %: 176%
SMILES: CCN(Cc1cc(=O)n2c(C(C)O)c(C)sc2n1)c1ccc(F)cc1 (centres unmarked) [Example 10.6, 7-[(N-ethyl-4-fluoro-anilino)methyl]-3-(1-hydroxyethyl)-2-methyl-thiazolo[3,2-a]pyrimidin-5-one]

EC50: 23400 nM
Max %: 127%
SMILES: CCN(Cc1cc(=O)n2c(CN(C)C)c(C)sc2n1)c1ccc(F)cc1 [Example 10.7, 3-[(dimethylamino)methyl]-7-[[ethyl(4-fluorophenyl)amino]methyl]-2-methyl-5H-[1,3]thiazolo[3,2-a]pyrimidin-5-one]

Max %: 63.5%
SMILES: CCN(Cc1cc(=O)n2c(CN3CCC3)c(C)sc2n1)c1ccc(F)cc1 [Example 10.8, 3-(azetidin-1-ylmethyl)-7-[(N-ethyl-4-fluoro-anilino)methyl]-2-methyl-thiazolo[3,2-a]pyrimidin-5-one]

Max %: 72.1%
SMILES: CCN(Cc1cc(=O)n2c(CN3CCCC3)c(C)sc2n1)c1ccc(F)cc1 [Example 10.9, 7-[(N-ethyl-4-fluoro-anilino)methyl]-2-methyl-3-(pyrrolidin-1-ylmethyl)thiazolo[3,2-a]pyrimidin-5-one]

EC50: 18800 nM
Max %: 132%
SMILES: CCN(Cc1cc(=O)n2c(CN3CC(O)C3)c(C)sc2n1)c1ccc(F)cc1 [Example 10.10, 7-[(N-ethyl-4-fluoro-anilino)methyl]-3-[(3-hydroxyazetidin-1-yl)methyl]-2-methyl-thiazolo[3,2-a]pyrimidin-5-one]

EC50: 1200 nM
Max %: 167%
SMILES: CCN(Cc1cc(=O)n2c(C(O)C(F)(F)F)c(C)sc2n1)c1ccc(F)cc1 (centres unmarked) [Example 10.11, 7-[(N-ethyl-4-fluoro-anilino)methyl]-2-methyl-3-(2,2,2-trifluoro-1-hydroxy-ethyl)thiazolo[3,2-a]pyrimidin-5-one]

EC50: 2100 nM
Max %: 149%
SMILES: CCN(Cc1cc(=O)n2c(CO)c(C)sc2n1)c1ccc(F)cc1 [Example 10.12, 7-((ethyl(4-fluorophenyl)amino)methyl)-3-(hydroxymethyl)-2-methyl-5H-thiazolo[3,2-a]pyrimidin-5-one]

EC50: 345 nM
Max %: 165%
SMILES: CCN(Cc1cc(=O)n2c(COC)c(C)sc2n1)c1ccc(F)cc1 [Example 10.13, 7-[[ethyl(4-fluorophenyl)amino]methyl]-3-(methoxymethyl)-2-methyl-5H-[1,3]thiazolo[3,2-a]pyrimidin-5-one]

EC50: 1500 nM
Max %: 172%
SMILES: CCN(Cc1cc(=O)n2c(Cn3cccn3)c(C)sc2n1)c1ccc(F)cc1 [Example 10.14, 7-[[Ethyl(4-fluorophenyl)amino]methyl]-2-methyl-3-(1H-pyrazol-1-ylmethyl)-5H-[1,3]thiazolo[3,2-a]pyrimidin-5-one]

EC50: 1300 nM
Max %: 156%
SMILES: CCN(Cc1cc(=O)n2c(CS(C)(=O)=O)c(C)sc2n1)c1ccc(F)cc1 [Example 10.15, 7-[(N-ethyl-4-fluoro-anilino)methyl]-2-methyl-3-(methylsulfonylmethyl)thiazolo[3,2-a]pyrimidin-5-one]

EC50: 2700 nM
Max %: 147%
SMILES: CCOCc1c(C)sc2nc(CN(CC)c3ccc(F)cc3)cc(=O)n12 [Example 10.16, 3-(ethoxymethyl)-7-[(N-ethyl-4-fluoro-anilino)methyl]-2-methyl-thiazolo[3,2-a]pyrimidin-5-one]

EC50: 1200 nM
Max %: 174%
SMILES: CCN(Cc1cc(=O)n2c(CC#N)c(C)sc2n1)c1ccc(F)cc1 [Example 10.17, 2-[7-[(N-ethyl-4-fluoro-anilino)methyl]-2-methyl-5-oxo-thiazolo[3,2-a]pyrimidin-3-yl]acetonitrile]
